Drawing on patent US20130059850A1, “AZA-INDOLE DERIVATIVES USEFUL AS MODULATORS OF FAAH” (MERCK SHARP & DOHME CORP., priority 2010, published 2013), this text covers IC50 for 25 molecules.

Assay [1] deals with T1, human FAAH (Fatty Acid Amide Hydrolase) (Homo sapiens, UniProt O00519).
T1 construct: The full length FAAH was subcloned into the mammalian expression vector, pcDEF.neo, using XbaI and EcoRI restriction sites; expressed in transfected cells
T1 sequence (O00519 1-579): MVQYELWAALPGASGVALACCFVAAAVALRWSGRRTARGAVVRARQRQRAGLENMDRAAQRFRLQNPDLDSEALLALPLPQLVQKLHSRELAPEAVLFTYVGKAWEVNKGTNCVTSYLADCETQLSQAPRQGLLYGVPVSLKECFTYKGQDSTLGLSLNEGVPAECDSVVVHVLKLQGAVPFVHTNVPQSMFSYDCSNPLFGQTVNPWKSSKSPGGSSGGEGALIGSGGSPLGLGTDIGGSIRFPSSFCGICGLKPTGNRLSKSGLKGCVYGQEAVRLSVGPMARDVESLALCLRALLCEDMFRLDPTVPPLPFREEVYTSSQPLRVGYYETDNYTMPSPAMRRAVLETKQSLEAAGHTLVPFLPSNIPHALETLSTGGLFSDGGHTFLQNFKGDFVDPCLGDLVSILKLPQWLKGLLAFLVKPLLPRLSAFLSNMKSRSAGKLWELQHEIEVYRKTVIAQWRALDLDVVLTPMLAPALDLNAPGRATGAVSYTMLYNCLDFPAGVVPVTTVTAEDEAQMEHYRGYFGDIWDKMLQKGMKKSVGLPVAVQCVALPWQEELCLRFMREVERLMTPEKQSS
The experiment in a line: FAAH enzyme assay on CHO cell lysate expressing human FAAH (human LY), AAMCA fluorescent substrate. Type of assay: biochemical. The note with it: human FAAH_CHO cell lysate. The source says:
(§1) To assist in assay development stable cell lines for human, murine and rat full length FAAH were developed. Human FAAH cDNA (Accession No: NM_001441.1) was purchased from Origene (Rockville, Md.). The full length FAAH was subcloned into the mammalian expression vector, pcDEF.neo, using XbaI and EcoRI restriction sites and used for stable cell line generation.
CHO cells expressing FAAH were used to prepare either crude cell lysate or microsome fractions. To harvest cells, tissue culture media was decanted, the monolayer washed three times with Ca^++Mg^++ free PBS and cells recovered after […] in enzyme free dissociation media (Millipore Corp, Billerica, Mass.). Cells were collected by centrifuging at 2000 rpm for 15 min. and the cell pellet re-suspended with 50 mM HEPES (pH 7.4) containing 1 mM EDTA and the protease inhibitors aprotinin (1 mg/ml) and leupeptin (100 μM). The suspension was sonicated at 4° C. and the cell lysate recovered after centrifuging at 12,000×g (14,600 rpm, SS34 rotor) for 20 min at 4° C. to form a crude pellet of cell debris, nuclei, peroxisomes, lysosomes, and mitochondria; the supernatant or cell lysate was used for FAAH enzyme assay. In some cases, microsomes fractions enriched in FAAH were prepared by centrifuging the cell lysate further at 27,000 rpm (100,000×g) in SW28 rotor for 50 minutes at 4° C. The pellet containing FAAH-enriched microsomes was re-suspend in 50 mM HEPES, (pH 7.4) 1 mM EDTA, and any remaining DNA sheared by passage of material through a 23 gauge needle and aliquots of enzyme were store at −80° C. prior to use.
(§2) (American Radiolabeled Chemicals; 1 mCi/ml) with FAAH (Life Sciences (1995), 56, 1999-2005 and Journal of Pharmacology and Experimented Therapeutics (1997), 283, 729-734), Analytical. Biochemistry (2003), 318, 270-5. In addition, routine assays were performed monitoring hydrolysis of arachidonyl-7-amino-4-methylcoumarin amide (AAMCA) by following increase in fluorescence upon release of 7-amino 4-methyl coumarin (λEX=355 nm, μEM=460 nm). Analytical. Biochemistry (2005). 343, 143-51
(§3) Assays are performed on either cell lysate or microsome fractions prepared as described or in whole cell format employing either the fluorescent substrate AAMCA (Cayman chemical, Ann Arbor, Mich.,) or ^3H-anandamide ([ETHANOLAMINE-1-3H] American Radiolabeled Chemicals; 1 mCi/ml). The cell lysate or microsome assay is performed in black PerkinElmer OptiPlates-384F by adding FAAH_CHO (whole cell (human whole cell or human WC), cell lysate (human cell lysate or human LY) or microsome) in assay buffer (50 mM Phosphate, pH 8.0, 1 mM EDTA, 200 mM KCl, 0.2% glycerol, 0.1% fatty acid free BSA) to each well, followed by either DMSO or compound and allowed to incubate at 22-25° C. for fifteen minutes. AAMCA substrate was used to achieve a final concentration of 1 μM and reaction allowed to proceed at room temperature for 1-3 hours. Fluorescent release as a measure of FAAH activity was monitored by reading the plate in a Envision plate Reader (Ex: 360/40 nM; Em: 460/40 nM). Whole cell assay is conducted with cells harvested after rinsing tissue culture flasks three times with Ca^++Mg^++ free PBS, incubating for […] in Enzyme free dissociation media and centrifuging for 5 minutes at 1,000 rpm in table top centrifuge. Cells are resuspended in assay buffer at desired cell number in (4×10^4 cells/assay in 96-well format; 1×10^4 cells/assay in 384-well format) and assayed as described.

Assay [2] deals with T1, human FAAH (Fatty Acid Amide Hydrolase). In words: FAAH whole cell assay on CHO cells expressing human FAAH (human WC), AAMCA fluorescent substrate. In kind it is cell-based. The note with it: human FAAH_CHO whole cell.
Excerpt: as §1
Murine (accession number NM_010173) and Rat FAAH (accession number NM_024132) was amplified by reverse transcriptase polymerase chain reaction (RT-PCR) from brain cDNA (BD Biosciences, San Jose, Calif.) using primers 1 and 2 or primers 1 and 3 respectively (see Table). The resulting PCR product was ligated into pCR4 TOPO and DNA sequence confirmed. The full length murine FAAH was subcloned into the mammalian expression vector, pcDEFneo using either EcoRI (murine) or KpnI and EcoRI (rat) restriction sites. Chinese hamster ovary cells (CHO) were transfected following manufacturers protocol (AMAXA). Forty eight hours post transfection, cells were trypsinized and transferred to 96 well plates in Iscove's DMEM media supplemented with 2 mM Glutamine, 10% fetal calf serum, 1 mg/ml geneticin and HT Supplement (0.1 mM sodium hypoxanthine, 0.016 mM thymidine) in order to isolate single clones. Following selection in geneticin, individual clones were selected and FAAH activity was assessed using a whole cell fluorescent anandamide assay, modified from Ramarao et al (2005). Following removal of tissue culture media cells were dislodged following addition of Cellstripper (Mediatech, Inc. Manassas, Va.) and transferred to 96 well black clear bottom assay plate, centrifuged at 1,000 rpm for 3 mins and media removed and replaced with assay buffer (50 mM Tris pH8.0, 1 mM EDTA, 0.1% fatty acid free BSA). The reaction was initiated by addition of fluorescent substrate, AMC Arachidonoyl Amide (Cayman Chemical, Ann Arbor, Mich.) to 1 μM and reaction allowed to proceed for 2 hours at room temperature. Release of fluorescence was monitored in a CytoFluor Multiplate Reader. Cells expressing the highest amount of FAAH activity were selected for study with FAAH inhibitors.
as §2
as §3, with “Cells are resuspended in assay buffer at desired cell number in (4×10^4 cells/assay in 96-well format; 1×10^4 cells/assay in 384-well format) and assayed as described.” left out

Structures are written as SMILES.

With `C[S+]([O-])c1ccc(-c2[nH]c3ncccc3c2Sc2ccc(Cl)cc2)cn1` (centres unmarked) [Example A36, 3-[(4-chlorophenyl)sulfanyl]-2-[6-(methylsulfinyl)pyridin-3-yl]-1H-pyrrolo[2,3-b]pyridine], the values for the IC50 in assay [1] and in assay [2] were 3.35 nM and 28.9 nM, respectively.

Consider `Clc1ccc(Sc2c(-c3ccc4c(c3)OCO4)[nH]c3ncccc23)cc1` [Example B4, 2-(1,3-benzodioxol-5-yl)-3-[(4-chlorophenyl)sulfanyl]-1H-pyrrolo[2,3-b]pyridine], for which the IC50 worked out at 0.508 nM in assay [1] and 4.62 nM in assay [2].

In the case of `Clc1ccc(Sc2c(-c3ccc4c(c3)OCO4)[nH]c3ncccc23)nc1` [Example B5, 2-(1,3-benzodioxol-5-yl)-3-[(5-chloropyridin-2-yl)sulfanyl]-1H-pyrrolo[2,3-b]pyridine], the half-maximal inhibitory concentration (IC50) was 2.58 nM in assay [1] and 13.7 nM in assay [2].

`Clc1ccc(Sc2c(-c3ccc4c(c3)OCCO4)[nH]c3ncccc23)cc1` [Example B6, 3-[(4-chlorophenyl)sulfanyl]-2-(2,3-dihydro-1,4-benzodioxin-6-yl)-1H-pyrrolo[2,3-b]pyridine]: the IC50 was 4.42 nM in assay [1] and 11.8 nM in assay [2].

Regarding `COc1cccc(-c2[nH]c3ncccc3c2Sc2ccc(Cl)cc2)c1` [Example B7], the IC50 in assay [1] turned out to be 2.23 nM; in assay [2], 18.8 nM.

On to `COc1ccc(-c2[nH]c3ncccc3c2Sc2ccc(Cl)cc2)cc1` [Example B8], for which the IC50 came out at 2.34 nM in assay [1] and 10.3 nM in assay [2].

Turning to `COc1ccc(-c2[nH]c3ncccc3c2Sc2ccc(Cl)cc2)cc1OC` [Example B9], the figures for the IC50 in assay [1] and in assay [2] were 1.43 nM and 3.83 nM, respectively.

`Clc1ccc(Sc2c(-c3cccc4[nH]ccc34)[nH]c3ncccc23)cc1` [Example B10]: the IC50 amounted to 3.88 nM in assay [1] and 20.7 nM in assay [2].

For `Cn1ccc2cc(-c3[nH]c4ncccc4c3Sc3ccc(Cl)cc3)ccc21` [Example B11], the IC50 stood at 3.29 nM in assay [1] and 10.2 nM in assay [2].

Turning to `CC(O)c1ccc(-c2[nH]c3ncccc3c2Sc2ccc(Cl)cc2)cc1` (centres unmarked) [Example B12], the IC50 in assay [1] was 11.6 nM; in assay [2], 27.1 nM.

On to `Clc1ccc(Sc2c(-c3ccc4c(c3)OCCO4)[nH]c3ncccc23)nc1` [Example B13], for which the values for the IC50 in assay [1] and in assay [2] were 2.89 nM and 13 nM, respectively.

On to `COc1ncc(-c2[nH]c3ncccc3c2Sc2ccc(Cl)cc2)c(OC)n1` [Example B14], for which the values for the IC50 in assay [1] and in assay [2] were 9.47 nM and 47.4 nM, respectively.

With `Clc1ccc(Sc2c(C3=CCCC3)[nH]c3ncccc23)cc1` [Example B15], the IC50 in assay [1] amounted to 107 nM; in assay [2], 1110 nM.

With `N#CC1CC=C(c2[nH]c3ncccc3c2Sc2ccc(Cl)cc2)CC1` (centres unmarked) [Example B16], the IC50 is 21.7 nM in assay [1] and 119 nM in assay [2].

In the case of `Clc1ccc(Sc2c(C3=CCCOC3)[nH]c3ncccc23)cc1` [Example B17], the IC50 in assay [1] amounted to 31.9 nM; in assay [2], 190 nM.

With `COc1ccc(-c2[nH]c3ncccc3c2Sc2ccc(Cl)cc2)c(OC)n1` [Example B18], the results for the IC50 in assay [1] and in assay [2] were 23.2 nM and 124 nM, respectively.

For `Cc1n[nH]c(C)c1-c1[nH]c2ncccc2c1Sc1ccc(Cl)cc1` [Example B19], the IC50 in assay [1] was determined as 65.6 nM; in assay [2], 364 nM.

For the molecule `Cn1cc(-c2[nH]c3ncccc3c2Sc2ccc(Cl)cc2)cn1` [Example B20], the IC50 is 238 nM in assay [1] and 4160 nM in assay [2].

On to `Clc1ccc(Sc2c(-c3ccnc4[nH]ccc34)[nH]c3ncccc23)cc1` [Example B27], for which the IC50 in assay [1] worked out at 3.18 nM; in assay [2], 30 nM.

With `Clc1ccc(Sc2c(-c3ccsc3)[nH]c3ncccc23)cc1` [Example B28], the figures for the IC50 in assay [1] and in assay [2] were 217 nM and 1520 nM, respectively.

Take `CC(=O)c1ccc(-c2[nH]c3ncccc3c2Sc2ccc(Cl)cc2)s1` [Example B29]: the IC50 in assay [1] came to 10.2 nM; in assay [2] it was 41.1 nM.

In the case of `Cc1noc(C)c1-c1[nH]c2ncccc2c1Sc1ccc(Cl)cc1` [Example B30], the values for the IC50 in assay [1] and in assay [2] were 208 nM and 1110 nM, respectively.

On to `Clc1ccc(Sc2c(-c3cnn4c3CCC4)[nH]c3ncccc23)cc1` [Example B31], for which the IC50 in assay [1] amounted to 113 nM; in assay [2] it was 686 nM.

For `N#Cc1cscc1-c1[nH]c2ncccc2c1Sc1ccc(Cl)cc1` [Example B32], the figures for the IC50 in assay [1] and in assay [2] were 94.8 nM and 438 nM, respectively.

Consider `Clc1ccc(Sc2c(-c3cccs3)[nH]c3ncccc23)cc1` [Example B33], for which the figures for the IC50 in assay [1] and in assay [2] were 464 nM and 8540 nM, respectively.

The IC50 is the concentration that inhibits the measured activity by half.
